Experimental data taken from patent US20080233102A1, “Drug Therapy for Celiac Sprue” (priority 2002, published 2008).
pKi: −log10 of the molar value.

Key:
[1] = molecular target: T1, recombinant human tissue transglutaminase (Homo sapiens, UniProt P21980); experiment: tTGase assay with recombinant human tissue transglutaminase; format: biochemical; settings: dihydroisoxazole inhibitors of human tTGase; irreversible inactivation
T1 construct: made in house
T1 sequence (P21980 1-687): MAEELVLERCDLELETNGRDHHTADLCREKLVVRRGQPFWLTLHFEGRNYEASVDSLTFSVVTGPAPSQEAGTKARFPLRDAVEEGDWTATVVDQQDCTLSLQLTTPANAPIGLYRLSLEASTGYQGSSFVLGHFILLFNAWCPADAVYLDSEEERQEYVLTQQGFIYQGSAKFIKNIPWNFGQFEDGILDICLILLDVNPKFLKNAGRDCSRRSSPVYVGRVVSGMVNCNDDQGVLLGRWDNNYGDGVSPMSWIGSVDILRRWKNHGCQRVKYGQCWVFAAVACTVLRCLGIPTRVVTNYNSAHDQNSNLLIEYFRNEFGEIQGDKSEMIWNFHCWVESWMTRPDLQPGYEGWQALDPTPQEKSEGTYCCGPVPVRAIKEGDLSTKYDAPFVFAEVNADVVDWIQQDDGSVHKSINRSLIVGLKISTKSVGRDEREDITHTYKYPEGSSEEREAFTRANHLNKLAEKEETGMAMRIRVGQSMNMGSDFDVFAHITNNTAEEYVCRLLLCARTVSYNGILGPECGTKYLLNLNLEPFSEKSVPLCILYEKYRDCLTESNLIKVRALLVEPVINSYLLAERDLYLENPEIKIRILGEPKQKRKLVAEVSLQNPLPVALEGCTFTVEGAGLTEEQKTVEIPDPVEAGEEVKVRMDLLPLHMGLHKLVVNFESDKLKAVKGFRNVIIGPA

[2] = tested on: bovine epidermal transglutaminase; settings: Castelhano et al., Bioorg. Chem. (1988) 16, 335-340; cited from earlier work
[3] = molecular target: T2, Tissue transglutaminase (tTG) (Homo sapiens, UniProt P21980); experiment: Inhibition of tTG (residual activity, glutamate dehydrogenase coupled assay); format: biochemical; settings: dihydroisoxazoles; 200 mM MOPS, pH=7.1, 30° C.; read-out: KI
T2 sequence (P21980 1-687): T1 sequence (P21980 1-687)
Protocol: Inhibition of tTG. tTG (9 μM) was inactivated in 200 mM MOPS, pH=7.1, 5 mM CaCl2, 1 mM ETDA at 30° C. containing 0-600 μM Pro-Gln-Pro-Aci-Leu-Pro-Tyr. Every 20 minutes a 40 μl aliquot was removed and residual tTG activity was assayed in 0.5 ml reaction containing 200 mM MOPS, pH=7.1, 5 mM CaCl2, 1 mM ETDA, 10 mM α-ketoglutarate, 180 U/ml glutamate dehydrogenase (Biozyme laboratories) at 30° C. for 20 minutes by measuring the decrease of absorption at 340 nm. Residual activity was corrected by the corresponding uninhibited tTG reaction (0 μM inhibitor) and fitted to an exponential decay. Kinetic parameters were obtained by double-reciprocal plotting of the apparent second-order inactivation constant or, for isatin analogs, by fitting the data for reversible inhibitors to a standard Michaelis Menten equation with a competitive inhibition constant.

Row | SMILES | Inhibition Rate Constants (kinh) [1] | Inhibition of bovine epidermal transglutaminase [2] | pKi [3]
1 | O=C(N[C@@H](Cc1ccccc1)C(=O)NCC1CC(Br)=NO1)OCc1ccccc1 (stereo partly drawn) [1a, {(S)-1-[(3-Bromo-4,5-dihydro-isoxazol-5-ylmethyl)-carbamoyl]-2-phenyl-ethyl}-carbamic acid benzyl ester] | 1.3 min⁻¹ | inhibitor | 
2 | O=C(NCC1CC(Br)=NO1)Nc1ccc(Cl)cc1C(F)(F)F (stereo not drawn) [1-(3-Bromo-4,5-dihydro-isoxazol-5-ylmethyl)-3-(4-chloro-2-trifluoromethyl-phenyl)-urea] |  |  | 2.89
